According to patent publication US20180272042A1, “DRUG-POLYMER FILM FOR CONTROLLED LOCAL DELIVERY AT TISSUE-DEVICE INTERFACE” (Brown University, priority 2017, published 2018):

System: oxidative stress
Experiment: oxidative stress in vitro model
Type: cell-based
Conditions: pterostilbene compared with resveratrol

SMILES: Oc1ccc(C=Cc2cc(O)cc(O)c2)cc1 [resveratrol]
- treatment of oxidative stress: comparable
